The test concerns collagenase derived from Clostridium histolyticum. Kind of test: Inhibition of collagenase (fluorescence assay with fluorogenic peptide substrate). In kind it is biochemical. The note with it: for Average % inhibition: average of replicates; for Inhibition Rate of collagenase (%): individual replicate. Here is the method:
The collagenase inhibitory activity of aqueous and ethanol extracts of Cornus officinalis Sieb. et Zucc., Potentilla glabra Lodd. var. mandshurica (Maxim.) Hand.-Mazz, Amomum kravanh Pierre ex Gagnep, and Bombax ceiba Linnaeus were evaluated. The sample mixture (10 μL), 10 μg/mL of the enzyme (collagenase derived from Clostridium histolyticum) and 50 mM Tricine buffer (pH 7.5), was added to a 96-well microtiter plate. […] After a 10 minute incubation at 37° C., the substrate solution ((7-methoxycoumarin-4-yl)acetyl-L-prolyl-L-leucylglycyl-L-leucyl-[Nβ-(2,4-dinitrophenyl)-L-2,3-diaminopropionyl]-Lalanyl-L-arginine amide) was added to obtain a final concentration of 10 μM, and was allowed to react. The fluorescence values were measured after 0 minutes and 30 minutes incubation at 37° C., at an excitation of 320 nm and an emission of 405 nm, using a fluorescence plate reader (EnSpire, Perkin Elmer, Inc., Japan). EGCG was used as a positive control. The average rates of inhibition can also be appreciated with reference to the Figures.

Structures are written as SMILES. Values joined by “and” are separate entries in the source; they are usually repeats but may differ in a detail not shown here. Identical values can stand only once.

For `O=C(O[C@@H]1Cc2c(O)cc(O)cc2O[C@@H]1c1cc(O)c(O)c(O)c1)c1cc(O)c(O)c(O)c1` [EGCG, epigallocatechin gallate], the Average % inhibition by setting is: (concentration 31.25 μg/ml) 19.10%; (concentration 62.5 μg/ml) 29.58%; (concentration 125 μg/ml) 39.38%; (concentration 250 μg/ml) 54.90%; (concentration 500 μg/ml) 80.36%; (concentration 1000 μg/ml) 106.38%. The “Inhibition Rate of collagenase (%)” value is, setting by setting: (concentration 31.25 μg/ml) 18.13% and 16.96% and 22.22%; (concentration 62.5 μg/ml) 31.14% and 27.49% and 30.12%; (concentration 125 μg/ml) 41.37% and 35.23% and 41.52%; (concentration 250 μg/ml) 52.78% and 57.02%; (concentration 500 μg/ml) 79.53% and 80.99% and 80.56%; (concentration 1000 μg/ml) 107.75% and 106.58% and 104.82%.

(Values after US20260124132A1, “COMPOSITION AND METHOD FOR INHIBITING COLLAGENASE ACTIVITY” (ACCESS BUSINESS GROUP INTERNATIONAL LLC, priority 2022, published 2026).)
